Data on ten molecules can be found in ChEMBL document CHEMBL1201862, “PubChem BioAssay data set” (2004).

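Interpolation was linear, between the two tested concentrations surrounding the appropriate level; five concentrations were tested over 48 hours in 96-well plates. The concentration for 50% growth inhibition is given as GI50.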 The source made the active and inactive calls. No stated cut-off is given here; in the data, active = GI50 up to about 1.1 µM and inactive = higher. Where only a bound is given, the exact number is not on record here.

Among the test systems are HT-29; HCT-116; KM12; RPMI-8226; ACHN; SN12C; UACC-62; 786-0; SNB-75; SK-MEL-28; EKVX; UO-31; SK-MEL-5; CAKI-1; OVCAR-8; NCI-H23; SNB-19; SF-295; U-251; IGROV-1.
Assay in all cases: NCI tumour cell line growth inhibition, 48 h

Consider `CC(=O)Nc1cccc2[nH]c3ccccc3c(=O)c12`, for which the GI50 was 17 µM (inactive) with HT-29; 11.5 µM (inactive) in the test on HCT-116; 17.7 µM (inactive) in the test with KM12; 14.7 µM (inactive) in the test on RPMI-8226; 17.4 µM (inactive) in the test on ACHN; 22.4 µM (inactive) with SN12C. The GI50 in the test with UACC-62 is 13.8 µM (inactive); in the test with 786-0, 17.6 µM (inactive); in the test on SNB-75, 8.67 µM (inactive); in the test on SK-MEL-28, 31.5 µM (inactive); with EKVX, 25.1 µM (inactive); in the test with UO-31, 10.2 µM (inactive). Further, the GI50 is 15.3 µM (inactive) with SK-MEL-5; 12.2 µM (inactive) with CAKI-1; 16.4 µM (inactive) in the test on OVCAR-8; 12.3 µM (inactive) in the test with NCI-H23; 23.2 µM (inactive) in the test on SNB-19; 19.5 µM (inactive) with SF-295. The results for the GI50 in the test with U-251 and in the test with IGROV-1 were 24.1 µM (inactive) and 26.4 µM (inactive), respectively.
As to `Oc1ccc(-c2nc3ccc4ccccc4c3c3c2CCCC3)c(O)c1`, the GI50 is 11.9 µM (inactive) with HT-29; 10.7 µM (inactive) in the test with HCT-116; 13.8 µM (inactive) in the test with KM12; 9.31 µM (inactive) in the test with RPMI-8226; 28.8 µM (inactive) in the test on ACHN; 17.7 µM (inactive) in the test with SN12C. Moreover, the GI50 was 19.5 µM (inactive) with UACC-62; 11.7 µM (inactive) with 786-0; 28.7 µM (inactive) in the test with SNB-75; 19.2 µM (inactive) with SK-MEL-28; 28.8 µM (inactive) in the test on EKVX; 29.9 µM (inactive) in the test on UO-31. The GI50 in the test on SK-MEL-5 was 9.68 µM (inactive); in the test on CAKI-1, 42.5 µM (inactive); with OVCAR-8, 13.8 µM (inactive); with NCI-H23 it was 27.9 µM (inactive); with SNB-19, 16.3 µM (inactive); with SF-295, 37.2 µM (inactive). In addition, the GI50 in the test on U-251 was 4.1 µM (inactive); in the test with IGROV-1, 4.34 µM (inactive).
In the case of `Nc1nc(Cl)cc(NCC2(CO)CCC(OCc3ccccc3)C2)n1` (stereo not given), the GI50 is 11.1 µM (inactive) with HT-29; 16.9 µM (inactive) in the test on HCT-116; 21 µM (inactive) with KM12; 34.4 µM (inactive) with RPMI-8226; 5.69 µM (inactive) with ACHN; 8.89 µM (inactive) in the test with SN12C. The GI50 with UACC-62 is 21.4 µM (inactive); with 786-0 it was 35.2 µM (inactive); in the test on SNB-75, 12.4 µM (inactive); with SK-MEL-28, 19.5 µM (inactive); with EKVX, 10.2 µM (inactive); with UO-31 it was 11.3 µM (inactive). The GI50 in the test with SK-MEL-5 is 2.82 µM (inactive); in the test on CAKI-1, 8.09 µM (inactive); in the test with OVCAR-8 it was 22.1 µM (inactive); with NCI-H23, 0.641 µM (active); in the test with SNB-19 it was 23.1 µM (inactive); in the test on SF-295 it was 31 µM (inactive). Moreover, the values for the GI50 with U-251 and in the test with IGROV-1 were 29.9 µM (inactive) and 18.2 µM (inactive), respectively.
On to `C=C(Br)CN(C)CC(=C)Br`, for which the GI50 in the test with HT-29, in the test with HCT-116, in the test with KM12, in the test on RPMI-8226, with ACHN and in the test on SN12C was > 100 µM (inactive) throughout. Further, the GI50 in the test with UACC-62, in the test on 786-0, in the test on SNB-75, with SK-MEL-28, with EKVX and in the test with UO-31 was > 100 µM (inactive) each time. In addition, the GI50 in the test on SK-MEL-5, in the test on CAKI-1, with OVCAR-8, in the test with NCI-H23, in the test with SNB-19 and with SF-295 was > 100 µM (inactive) each time. For the same molecule, the GI50 with U-251 and in the test with IGROV-1 was > 100 µM (inactive) throughout.
Take `CCC1C(=O)C[C@H]2[C@@H]3C(O)CC4=CC(=O)CC[C@]4(C)[C@H]3CC[C@]12C` (stereo not given in full): the GI50 in the test on HT-29, with HCT-116, in the test on KM12, in the test on RPMI-8226, with ACHN and in the test on SN12C was > 50 µM (inactive) throughout. Also, the GI50 in the test on UACC-62, in the test on 786-0, in the test with SNB-75, with SK-MEL-28, in the test on EKVX and in the test on UO-31 was > 50 µM (inactive) each time. The GI50 in the test on SK-MEL-5, in the test with CAKI-1, with OVCAR-8, in the test with NCI-H23, with SNB-19 and in the test on SF-295 was > 50 µM (inactive) throughout. In addition, the GI50 in the test on U-251 and in the test with IGROV-1 was > 50 µM (inactive) each time.
As for `COc1ccc2c(c1)c(=O)c1ccccc1n2/C=C/C(=O)O`, the GI50 in the test on HT-29 is > 74.8 µM (inactive); in the test on HCT-116, > 100 µM (inactive); with KM12 it was > 100 µM (inactive); in the test with RPMI-8226 it was > 100 µM (inactive); in the test on ACHN it was > 100 µM (inactive); in the test with SN12C, > 100 µM (inactive). In addition, the GI50 in the test with UACC-62, in the test on 786-0, in the test with SNB-75, with SK-MEL-28, with EKVX and in the test on UO-31 was > 100 µM (inactive) throughout. The GI50 in the test with SK-MEL-5, in the test with CAKI-1, in the test with OVCAR-8, with NCI-H23, with SNB-19 and with SF-295 was > 100 µM (inactive) each time. In addition, the GI50 in the test with U-251 is > 27 µM (inactive); in the test on IGROV-1 it was > 100 µM (inactive).
In the case of `CCn1c(SCC(=O)N/N=C/c2ccccc2)nc2ccccc2c1=O`, the GI50 was 4.06 µM (inactive) in the test on HT-29; 5.42 µM (inactive) in the test with HCT-116; 3.64 µM (inactive) with KM12; 14.2 µM (inactive) in the test on RPMI-8226; 36 µM (inactive) in the test on ACHN; 13.1 µM (inactive) with SN12C. The GI50 is 5.52 µM (inactive) with UACC-62; 7.66 µM (inactive) with 786-0; 12.8 µM (inactive) with SNB-75; 39.4 µM (inactive) in the test on SK-MEL-28; 26.3 µM (inactive) in the test with EKVX; 29.9 µM (inactive) in the test with UO-31. Moreover, the GI50 was 7.94 µM (inactive) in the test with SK-MEL-5; 9.08 µM (inactive) with CAKI-1; 16.3 µM (inactive) with OVCAR-8; 31.8 µM (inactive) with NCI-H23; 18.5 µM (inactive) in the test on SNB-19; 4.7 µM (inactive) with SF-295. Moreover, the GI50 with U-251 is 18.5 µM (inactive); with IGROV-1, 12.9 µM (inactive).
As to `COc1cccc(/C=C/C(=O)c2sc(C(N)=S)nc2C)c1O`, the GI50 with HT-29 was > 100 µM (inactive); in the test with HCT-116, 38.5 µM (inactive); in the test on KM12, > 62.2 µM (inactive); with RPMI-8226 it was 20.5 µM (inactive); in the test on ACHN, > 100 µM (inactive); in the test on SN12C, > 100 µM (inactive). Further, the GI50 in the test with UACC-62 is > 100 µM (inactive); in the test on 786-0 it was 34.8 µM (inactive); in the test with SNB-75, > 100 µM (inactive); in the test with SK-MEL-28, > 100 µM (inactive); in the test on EKVX, > 100 µM (inactive); with UO-31, 56.4 µM (inactive). Also, the GI50 is > 100 µM (inactive) with SK-MEL-5; > 100 µM (inactive) in the test with CAKI-1; > 96.2 µM (inactive) in the test with OVCAR-8; 68.1 µM (inactive) in the test on NCI-H23; > 100 µM (inactive) in the test with SNB-19; > 94.6 µM (inactive) in the test on SF-295. Moreover, the GI50 with U-251 is 28.8 µM (inactive); in the test on IGROV-1 it was > 61.5 µM (inactive).
With `CC(=O)NC(CCCNC(=O)N(C)N=O)C(=O)NCc1ccccc1` (stereo not given), the GI50 in the test on HT-29, in the test on HCT-116, in the test with KM12, in the test with RPMI-8226, with ACHN and in the test with SN12C was > 100 µM (inactive) in each case. Also, the GI50 with UACC-62 is > 100 µM (inactive); in the test on 786-0, > 100 µM (inactive); in the test on SNB-75 it was 52.1 µM (inactive); with SK-MEL-28, > 100 µM (inactive); with EKVX, > 100 µM (inactive); with UO-31 it was > 100 µM (inactive). The GI50 in the test with SK-MEL-5, with CAKI-1, in the test on OVCAR-8, with NCI-H23, in the test on SNB-19 and with SF-295 was > 100 µM (inactive) each time. Further, the GI50 in the test with U-251 and in the test with IGROV-1 was > 100 µM (inactive) in each case.
On to `CC1OC(n2cc(F)c(=O)[nH]c2=O)CCC1O` (stereo not given), for which the GI50 was 98.9 µM (inactive) in the test on HT-29; 78 µM (inactive) with HCT-116; > 96.2 µM (inactive) in the test with KM12; 56.1 µM (inactive) in the test with RPMI-8226; > 95.9 µM (inactive) in the test on ACHN; > 100 µM (inactive) in the test with SN12C. For the same molecule, the GI50 is > 100 µM (inactive) with UACC-62; > 100 µM (inactive) in the test on 786-0; > 72.9 µM (inactive) in the test with SNB-75; > 100 µM (inactive) in the test on SK-MEL-28; > 100 µM (inactive) in the test with EKVX; 85.3 µM (inactive) in the test with UO-31. In addition, the GI50 with SK-MEL-5 is > 56.2 µM (inactive); in the test with CAKI-1, > 91.6 µM (inactive); in the test with OVCAR-8, > 85.3 µM (inactive); with NCI-H23, > 100 µM (inactive); in the test on SNB-19, > 100 µM (inactive); with SF-295, > 84.5 µM (inactive). Besides, the GI50 with U-251 and with IGROV-1 was > 100 µM (inactive) in each case.
